Laboratory results as given in US10793547B2, “Modulator of the cystic fibrosis transmembrane conductance regulator, pharmaceutical compositions, methods of treatment, and process for making the modulator” (Vertex Pharmaceuticals Incorporated, priority 2016, dated 2020).

Key:
F508del-CFTR = molecular target: T1, F508del-CFTR (Homo sapiens, UniProt P13569, DEL508-508); assay: Membrane potential optical (FLIPR) assay for F508del-CFTR modulators in NIH 3T3 cells; format: cell-based; conditions: NIH 3T3 cells expressing F508del; assay A1; read-out: CFTRdF508 Cor 3T3 FLIPR 384 CFTRdF508 MP 3T3 770 EC50
T1 construct: expressed in transfected cells
T1 sequence (P13569 with tags, fused parts or gaps DEL508-508): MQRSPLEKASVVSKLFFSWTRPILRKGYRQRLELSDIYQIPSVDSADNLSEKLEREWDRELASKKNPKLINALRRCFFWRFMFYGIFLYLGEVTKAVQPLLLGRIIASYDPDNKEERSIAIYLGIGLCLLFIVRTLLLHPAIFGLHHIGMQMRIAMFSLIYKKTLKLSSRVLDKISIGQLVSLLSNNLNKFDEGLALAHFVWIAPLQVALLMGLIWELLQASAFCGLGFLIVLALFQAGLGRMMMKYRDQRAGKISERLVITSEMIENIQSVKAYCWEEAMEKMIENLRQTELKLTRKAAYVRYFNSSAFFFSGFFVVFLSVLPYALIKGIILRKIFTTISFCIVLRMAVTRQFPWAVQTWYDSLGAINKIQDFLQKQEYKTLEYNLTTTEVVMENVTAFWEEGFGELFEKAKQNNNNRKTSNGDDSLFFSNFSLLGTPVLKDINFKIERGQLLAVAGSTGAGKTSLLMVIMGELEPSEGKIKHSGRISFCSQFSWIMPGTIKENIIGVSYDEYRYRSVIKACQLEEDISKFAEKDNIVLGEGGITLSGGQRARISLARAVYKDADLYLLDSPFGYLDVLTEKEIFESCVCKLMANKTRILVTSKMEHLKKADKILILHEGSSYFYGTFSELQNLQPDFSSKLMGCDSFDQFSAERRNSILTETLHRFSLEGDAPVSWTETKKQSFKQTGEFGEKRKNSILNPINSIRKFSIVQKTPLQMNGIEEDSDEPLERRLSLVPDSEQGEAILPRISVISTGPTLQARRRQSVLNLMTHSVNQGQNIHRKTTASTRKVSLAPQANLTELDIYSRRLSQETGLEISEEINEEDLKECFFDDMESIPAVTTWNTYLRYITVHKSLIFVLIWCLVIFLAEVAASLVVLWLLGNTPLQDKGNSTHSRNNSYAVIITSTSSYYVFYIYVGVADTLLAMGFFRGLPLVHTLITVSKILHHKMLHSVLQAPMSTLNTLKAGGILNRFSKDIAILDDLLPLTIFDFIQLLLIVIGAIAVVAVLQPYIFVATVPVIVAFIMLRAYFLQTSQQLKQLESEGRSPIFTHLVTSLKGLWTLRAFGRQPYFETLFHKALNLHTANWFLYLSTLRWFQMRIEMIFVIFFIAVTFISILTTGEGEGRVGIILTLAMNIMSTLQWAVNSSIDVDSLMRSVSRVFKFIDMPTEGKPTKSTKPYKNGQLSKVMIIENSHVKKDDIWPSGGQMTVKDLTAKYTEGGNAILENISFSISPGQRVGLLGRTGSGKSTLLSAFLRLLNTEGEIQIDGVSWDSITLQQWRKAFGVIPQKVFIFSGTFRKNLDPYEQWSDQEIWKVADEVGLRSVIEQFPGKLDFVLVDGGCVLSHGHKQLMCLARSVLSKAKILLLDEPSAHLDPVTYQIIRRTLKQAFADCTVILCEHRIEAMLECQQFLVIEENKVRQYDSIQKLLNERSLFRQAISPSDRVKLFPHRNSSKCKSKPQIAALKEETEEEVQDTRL
Excerpt: Membrane Potential Optical Methods for Assaying Properties of F508del-CFTR Modulators
The assay utilizes fluorescent voltage sensing dyes to measure changes in membrane potential using a fluorescent plate reader (e.g., FLIPR III, Molecular Devices, Inc.) as a readout for increase in functional F508del in NIH 3T3 cells. The driving force for the response is the creation of a chloride ion gradient in conjunction with channel activation and concurrent with compound treatment by a single liquid addition step after the cells have previously been loaded with a voltage sensing dye.
A1. Identification of F508del-CFTR Modulators
To identify modulators of F508del, a fluorescence based HTS assay format was developed. This HTS assay utilizes fluorescent voltage sensing dyes to measure changes in membrane potential on the FLIPR III as a measurement for increase in gating (conductance) of F508del NIH 3T3 cells. The driving force for the response is the creation of a chloride ion gradient in conjunction with channel activation and concurrent with compound treatment by a single liquid addition step after the cells have previously been loaded with a voltage sensing dye.
Bath Solution #1: (in mM) NaCl 160, KCl 4.5, CaCl2 2, MgCl2 1, HEPES 10, pH 7.4 with NaOH, Glucose 10.
Chloride-free bath solution: Chloride salts in Bath Solution #1 (above) are substituted with gluconate salts.
NIH3T3 mouse fibroblasts stably expressing F508del were used for optical measurements of membrane potential. The cells were maintained at 37° C. in 5% CO2 and 90% humidity in Dulbecco's modified Eagle's medium supplemented with 2 mM glutamine, 10% fetal bovine serum, 1×NEAA, β-ME, 1× pen/strep, and 25 mM HEPES in 175 cm^2 culture flasks. For all optical assays, the cells were seeded at 12,000 cells/well in 384-well matrigel-coated plates and cultured for 18-24 hrs at 37° C. for the potentiator assay. For the correction assay, the cells were cultured at 37° C. with and without compounds for 18-24 hours.

human PXR = molecular target: T2, human PXR (Homo sapiens, UniProt O75469); assay: PXR assay: PXR mediated CYP3A4 induction in DPX-2 cell line; format: cell-based; conditions: DPX-2 cells
T2 construct: host or cells: DPX-2 cell line (derived from HepG2)
T2 sequence (O75469 1-434): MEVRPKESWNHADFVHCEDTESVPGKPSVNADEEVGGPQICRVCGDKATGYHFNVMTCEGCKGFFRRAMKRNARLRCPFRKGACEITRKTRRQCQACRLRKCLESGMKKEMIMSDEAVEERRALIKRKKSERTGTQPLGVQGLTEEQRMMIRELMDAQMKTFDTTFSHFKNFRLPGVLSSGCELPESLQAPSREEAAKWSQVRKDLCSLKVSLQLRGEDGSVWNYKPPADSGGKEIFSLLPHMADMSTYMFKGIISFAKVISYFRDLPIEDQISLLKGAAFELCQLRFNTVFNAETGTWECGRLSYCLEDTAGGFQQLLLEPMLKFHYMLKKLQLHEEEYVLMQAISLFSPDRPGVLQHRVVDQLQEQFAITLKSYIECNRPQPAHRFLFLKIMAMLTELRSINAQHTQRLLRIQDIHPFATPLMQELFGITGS
Protocol: D. Experimental Protocol for PXR Assay
The propensity for PXR mediated CYP3A4 induction is assessed using the DPX-2 cell line in vitro. This cell line, which has been licensed from Puracyp Inc. was derived from HepG2 cells and has been stably transfected with genes encoding human PXR as well as a modified luciferase reporter linked to the CYP3A4 promoter region and related distal and proximal enhancers.
The assay is run in 384 well format and each test article is administered in 11 doses ranging from 0.1 to 60 μM. On day 1, DPX-2 cells which have previously been expanded in-house and cryopreserved are thawed and seeded in tissue culture plates. The following day, media is changed and cells are cultured in media containing test article, vehicle control or the positive control compound, the clinically validated CYP3A4 inducer rifampicin. Cells are cultured in the presence of test article for 48 hours and then cell viability is assessed using fluorescence based assay (Cell Titer-Fluor, Promega) with an EnVision Plate Reader (PerkinElmer). Subsequently, CYP3A4 transactivation, which is proportional to luciferase activity, is measured by reading luminescense using the Promega One-Glo reagent system using the same plate reader.
Data processing within the Genedata software package allows reporting of max fold induction compared to vehicle control, an EC50 value for CYP3A4 inducers and an 11 point-dose response curve.

[1] = MDCK-Wild Type permeability, 96 well + 0.1% BSA; format: in vitro ADME; conditions: dog, MDCK, A-B direction, read-out: MDCK-Wild Type-Permeability 96 well + 0.1% BSA Papp compound (A-B)
Rat hepatocytes = assay: Hepatocyte clearance, rat hepatocytes; format: in vitro ADME; conditions: percent unchanged

Row | EC50 (F508del-CFTR) [nM] | CYP3A4 Induction-PXR human PXR internal Max % Activity (human PXR) [%] | Papp A→B [1] [×10⁻⁶ cm/s] | Hepatocyte clearance-Rat Rat hepatocytes CL pct_unchanged (Rat hepatocytes) [%] | Compound
1 | 400 | 10 | 3.2 | 62 | C[C@@H]1CN(c2nc(-n3ccc(OCC4(C(F)(F)F)CC4)n3)ccc2C(=O)NS(=O)(=O)c2cnn(C(C)(C)C)c2)C(C)(C)C1 [Compound 8, N-(1-tert-butylpyrazol-4-yl)sulfonyl-6-[3-[[1-(trifluoromethyl)cyclopropyl]methoxy]pyrazol-1-yl]-2-[(4S)-2,2,4-trimethylpyrrolidin-1-yl]pyridine-3-carboxamide]
2 | 300 | 0.9 | 2.1 | 53 | C[C@@H]1CN(c2nc(-n3ccc(OCC4(C(F)(F)F)CC4)n3)ccc2C(=O)NS(=O)(=O)c2cnn(C)c2)C(C)(C)C1 [Compound 6, N-(1-methylpyrazol-4-yl)sulfonyl-6-[3-[[1-(trifluoromethyl)cyclopropyl]methoxy]pyrazol-1-yl]-2-[(4S)-2,2,4-trimethylpyrrolidin-1-yl]pyridine-3-carboxamide]
3 | 1000 | 6 | 2.3 | – | Cc1c(S(=O)(=O)NC(=O)c2ccc(-n3ccc(OCC4CC45CC5)n3)nc2N2C[C@@H](C)CC2(C)C)cnn1C (stereo partly drawn) [Compound 26, N-(1,5-dimethylpyrazol-4-yl)sulfonyl-6-[3-(spiro[2.2]pentan-2-ylmethoxy)pyrazol-1-yl]-2-[(4S)-2,2,4-trimethylpyrrolidin-1-yl]pyridine-3-carboxamide]
4 | 610 | 6 | 7.5 | 39 | Cc1nn(C)cc1S(=O)(=O)NC(=O)c1ccc(-n2ccc(OC3CC3C(F)(F)F)n2)nc1N1C[C@@H](C)CC1(C)C (stereo partly drawn) [Compound 34, N-(1,3-dimethylpyrazol-4-yl)sulfonyl-6-[3-[2-(trifluoromethyl)cyclopropoxy]pyrazol-1-yl]-2-[(4S)-2,2,4-trimethylpyrrolidin-1-yl]pyridine-3-carboxamide]
5 | 1300 | 0 | 0.3 | 33 | C[C@@H]1CN(c2nc(-n3ccc(OCC4(C(F)(F)F)CC4)n3)ccc2C(=O)NS(=O)(=O)c2cn[nH]c2)C(C)(C)C1 [Compound 5, N-(1H-pyrazol-4-ylsulfonyl)-6-[3-[[1-(trifluoromethyl)cyclopropyl]methoxy]pyrazol-1-yl]-2-[(4S)-2,2,4-trimethylpyrrolidin-1-yl]pyridine-3-carboxamide]
6 | 650 | 4 | 3.1 | – | CCn1cc(S(=O)(=O)NC(=O)c2ccc(-n3ccc(OCC4(C(F)(F)F)CC4)n3)nc2N2C[C@@H](C)CC2(C)C)cn1 [Compound 7, N-(1-ethylpyrazol-4-yl)sulfonyl-6-[3-[[1-(trifluoromethyl)cyclopropyl]methoxy]pyrazol-1-yl]-2-[(4S)-2,2,4-trimethylpyrrolidin-1-yl]pyridine-3-carboxamide]
7 | 150 | 6 | 2.9 | 29 | Cc1nn(C)cc1S(=O)(=O)NC(=O)c1ccc(-n2ccc(O[C@H]3C[C@@H]4CC[C@H]3C4)n2)nc1N1C[C@@H](C)CC1(C)C [Compound 51, N-(1,3-dimethylpyrazol-4-yl)sulfonyl-6-[3-[(1S,2S,4R)-norbornan-2-yl]oxypyrazol-1-yl]-2-[(4S)-2,2,4-trimethylpyrrolidin-1-yl]pyridine-3-carboxamide]
8 | 260 | 3 | 0.4 | 13 | C[C@@H]1CN(c2nc(-n3ccc(OCC(C)(C)C)n3)ccc2C(=O)NS(=O)(=O)c2ccc[nH]c2=O)C(C)(C)C1 [B, reference compound]
9 | 90 | 1 | 8.8 | – | Cc1nn(C)cc1S(=O)(=O)NC(=O)c1ccc(-n2ccc(OCC3(C(F)(F)F)CCC3)n2)nc1N1C[C@@H](C)CC1(C)C [Compound 19, N-(1,3-dimethylpyrazol-4-yl)sulfonyl-6-[3-[[1-(trifluoromethyl)cyclobutyl]methoxy]pyrazol-1-yl]-2-[(4S)-2,2,4-trimethylpyrrolidin-1-yl]pyridine-3-carboxamide]
10 | 170 | 2 | 2 | 18 | Cc1nn(C)cc1S(=O)(=O)NC(=O)c1ccc(-n2ccc(OCC3C4CCC3CC4)n2)nc1N1C[C@@H](C)CC1(C)C (stereo partly drawn) [Compound 52, N-(1,3-dimethylpyrazol-4-yl)sulfonyl-6-[3-(norbornan-7-ylmethoxy)pyrazol-1-yl]-2-[(4S)-2,2,4-trimethylpyrrolidin-1-yl]pyridine-3-carboxamide]
11 | 200 | 5 | 3.8 | – | Cc1nn(C)cc1S(=O)(=O)NC(=O)c1ccc(-n2ccc(OCC(C3CC3)C3CC3)n2)nc1N1C[C@@H](C)CC1(C)C [Compound 32, 6-[3-(2,2-dicyclopropylethoxy)pyrazol-1-yl]-N-(1,3-dimethylpyrazol-4-yl)sulfonyl-2-[(4S)-2,2,4-trimethylpyrrolidin-1-yl]pyridine-3-carboxamide]
12 | 290 | 7 | 5.1 | – | Cc1nn(C)cc1S(=O)(=O)NC(=O)c1ccc(-n2ccc(OCC(C)(C)C(F)(F)F)n2)nc1N1C[C@H](C)CC1(C)C [Compound 37, N-(1,3-Dimethylpyrazol-4-yl)sulfonyl-6-[3-(3,3,3-trifluoro-2,2-dimethyl-propoxy)pyrazol-1-yl]-2-[(4R)-2,2,4-trimethylpyrrolidin-1-yl]pyridine-3-carboxamide]
13 | 110 | 2 | 1 | 56 | Cc1nn(C)cc1S(=O)(=O)NC(=O)c1ccc(-n2ccc(OCCC(C3CC3)C3CC3)n2)nc1N1C[C@@H](C)CC1(C)C [Compound 38, 6-[3-(3,3-dicyclopropylpropoxy)pyrazol-1-yl]-N-(1,3-dimethylpyrazol-4-yl)sulfonyl-2-[(4S)-2,2,4-trimethylpyrrolidin-1-yl]pyridine-3-carboxamide]
14 | 210 | 10 | – | 19 | C[C@@H]1CN(c2nc(-n3ccc(OCC4CCC4)n3)ccc2C(=O)NS(=O)(=O)c2cccnc2N)C(C)(C)C1 [D, reference compound]
15 | 1000 | 8 | 4.6 | – | Cc1nn(C)cc1S(=O)(=O)NC(=O)c1ccc(-n2ccc(OC(C3CC3)C3CC3)n2)nc1N1C[C@@H](C)CC1(C)C [Compound 48, 6-[3-(Dicyclopropylmethoxy)pyrazol-1-yl]-N-(1,3-dimethylpyrazol-4-yl)sulfonyl-2-[(4S)-2,2,4-trimethylpyrrolidin-1-yl]pyridine-3-carboxamide]
